From paper PMC8620715, “Biological Activity of Triazolopyrimidine Copper(II) Complexes Modulated by an Auxiliary N-N-Chelating Heterocycle Ligands” (Molecules, 2021)
Read-outs that look alike come from different tables or passages of the source.

Tests used:
λ-DNA/EB adduct = assay: Quenching of fluorescence of λ-DNA/ethidium bromide adduct; type: binding, bacteriophage lambda; details: λ-DNA pre-treated with EB, pH 8
Procedure: The binding of complexes (1) and (2) to DNA was assayed by monitoring the quenching of fluorescence emitted by λ-DNA/ethidium bromide (EB) adduct (λexcit = 510 nm, maximum emission at λem = 601 nm) in the presence of different concentrations of the tested compounds [68, 69]. The fluorescence spectra were recorded in the range of 550–750 nm using a Thermo Fischer Scientific Varioskan Flash spectral scanning multimode reader (Vantaa, Finland). The spectra were recorded in suitable plates using 5 nm excitation and emission slits for all measurements.
The binding of compounds to λ-DNA was assayed by monitoring the quenching of fluorescence emitted by λ-DNA/ethidium bromide (EB) adduct (λexcit = 510, maximum emission at λem = 601). The λ-DNA solution was added to the EB solution, prepared in the same buffer, then increasing concentrations of compounds were added to EB-DNA [52, 70]. The fluorescence spectra were recorded in the range of 550–750 nm using a Thermo Fischer Scientific Varioskan Flash spectral scanning multimode reader (Vantaa, Finland). The spectra were recorded in suitable plates using 5 nm excitation and emission slits for all measurements.

Saccharomyces cerevisiae = type: cell-based; details: for sensitivity of sod1Δ and sod2Δ to menadione: 0.1 mM, SC medium; for sensitivity of sod1Δ and sod2Δ to menadione / lysine auxotrophy of sod1Δ cells (growth in SC-Lys medium): 16 h; for lysine auxotrophy of sod1Δ cells (growth in SC-Lys medium): various concentrations; for growth of yeast cells (WT, sod1Δ, sod2Δ): concentrations up to 2 mM
Procedure: The Saccharomyces cerevisiae laboratory strain BY4741 (MATa; his3Δ1; leu2Δ0; met15Δ0; ura3Δ0) considered wild type (WT), and the isogenic strains sod1Δ and sod2Δ lacking the genes SOD1 (encoding Cu/Zn-superoxide dismutase) and SOD2 (encoding Mn-superoxide dismutase) were obtained from EUROSCARF (Frankfurt, Germany). Cells were maintained, manipulated and grown in a rich medium (YPD, 1% w/v yeast extract, 2% w/v peptone, 2% w/v glucose; 2% w/v agar was added for solid media) or on synthetic complete medium (SC, 0.67% w/v yeast nitrogen base without amino acids, 2% w/v glucose) supplemented with the necessary amino acids. Lysine drop-out medium (SC-Lys) was prepared similarly to SC, omitting lysine from the recipe. We added the complexes to autoclaved media from DMSO sterile stocks (10 mM). An overnight culture was 10^3-fold diluted in fresh medium and incubated (200 rpm, 30 °C) until the culture reached a density of 5 × 10^5 cells. The compounds were added to the desired concentrations, and culture growth was monitored at 660 nm in a 96-well multi-scanner plate reader equipped with a thermostat and shaker (Varioskan, Thermo Fischer Scientific, Vantaa, Finland). Three biological replicates were set for all determinations, and data were presented as average ± standard error (SE). The Saccharomyces cerevisiae laboratory strain BY4741 (MATa; his3Δ1; leu2Δ0; met15Δ0; ura3Δ0) considered wild type (WT), and the isogenic strains sod1Δ and sod2Δ lacking the genes SOD1 (encoding Cu/Zn-superoxide dismutase) and SOD2 (encoding Mn-superoxide dismutase) were purchased from EUROSCARF (Frankfurt, Germany). Cells were maintained and manipulated and grown in YPD medium (1% w/v yeast extract, 2% w/v peptone, 2% w/v glucose; 2% w/v agar was added for solid media). Complexes were added to autoclaved media from DMSO sterile stocks (10 mM). To determine the effect of compounds on yeast growth, a fresh overnight pre-culture was 10^3-fold diluted in YPD and incubated (200 rpm, 30 °C) until the culture reached a density of 5 × 10^5 cells/mL. The compounds were added at the desired concentrations, and cell proliferation was monitored at 660 nm in a 96-well multi-scanner auto reader plate reader equipped with a thermostat and shaker (Varioskan Thermo Fischer Scientific, Vantaa, Finland). All determinations were done on three biological replicates.

B16 cells = assay: Lactate dehydrogenase (LDH) release assay, B16 cells; type: cell-based, mouse
Procedure: Membrane integrity after peptide treatment was assessed based on LDH release using a CytoTox 96 Non-Radioactive Cytotoxicity Assay (Promega), as previously described. […] Maximal LDH release was obtained by complete cell lysis induced by using 1% of Triton X-100. The absorption resulting from LDH activity was measured in a microplate reader Mithras 940 (Berthold) at 490 nm, and the % LDH was calculated as: [(corrected absorbance of the LDH released in treated cells)/(corrected absorbance of the total LDH released)] * 100%.

P. aeruginosa 27853 = assay: Biofilm formation on polystyrene (crystal violet), MBEC; type: cell-based, Pseudomonas aeruginosa; details: P. aeruginosa 27853, biofilm
Procedure: The antibacterial assays were carried out using two Gram-negative (Escherichia coli ATCC 25922, Pseudomonas aeruginosa ATCC 27853) and two Gram-positive (Staphylococcus aureus ATCC 25923, MRSA (meticillin-Resistant S. aureus) 388 (ATCC, American Type Culture Collection) bacteria.
The method for assessment of biofilm formation on polystyrene microtiter plates was based on previously published protocols. The absorbance at 490 nm was measured with an Apollo LB 911ELISA (Berthold Technologies GmbH & Co. KG, Waltham, MA, USA) reader. The minimal biofilm-eradication concentration (MBEC) was defined as the lowest concentration of antibiotics required to eradicate the biofilm. All experiments were performed in triplicate.

[1] = system: B16 murine melanoma cell line; assay: MTT cell viability assay, B16 melanoma cells; type: cell-based, mouse; details: for TI (therapeutic index): BJ vs B16, where no toxicity at highest concentration, a value two times higher was used
Procedure: Human fibroblast cells (BJ—ATCC CRL-2522, USA) were grown in minimal essential medium (MEM) supplemented with 2 mM L-Glutamine, 10% fetal calf serum (FCS), 100 units/mL of penicillin, and 100 µg/mL of streptomycin at 37 °C in a humidified incubator under an atmosphere containing 5% CO2. Mouse melanoma cells (B16—ATCC CRL—6475, USA) were grown in DMEM (Dulbecco’s Modified Eagle Medium) supplemented with similar reagents as MEM. All cell cultivation media and reagents were purchased from Biochrom AG (Berlin, Germany) and Sigma-Aldrich (Darmstadt, Germany).
Cell viability was evaluated using 3-(4,5-dimethylthiazol-2-yl)-2,5-diphenyltetrazolium bromide (MTT) assay as described previously. First, the cells were seeded in 96-well plates (20000 cells/well) and cultured for 24 h in medium. […] The negative control was represented by cells cultivated in a medium without the investigated compounds. Following incubation, the medium was changed, and the MTT solution was added to each well to a final concentration of 1 mg/mL and incubated for an additional 4 h, at 37 °C. Finally, the medium was collected, and DMSO was used to dissolve the insoluble formazan product. The absorbance of the samples was recorded at 570 nm using a plate reader Mithras 940 (Berthold). The data were corrected for the background, and the percentage of viable cells was obtained using the equation:Cell viability = [(A570 of treated cells)/(A570 of untreated cells)] × 100%(1)
The half-maximal inhibitory concentration (IC50) was determined by fitting the data with a sigmoidal logistical equation using the software Origin 8.1 (Microcal Inc., Los Angeles, CA, USA).

SMILES	fluorescence of λ-DNA/EB adduct on adding complex (λ-DNA/EB adduct)	sensitivity of sod1Δ and sod2Δ to menadione (Saccharomyces cerevisiae)	lysine auxotrophy of sod1Δ cells (growth in SC-Lys medium) (Saccharomyces cerevisiae)	growth of yeast cells (WT, sod1Δ, sod2Δ) (Saccharomyces cerevisiae)	membrane integrity (LDH release) (B16 cells; B16, 24 h and 48 h)	MBEC (P. aeruginosa 27853) [mM]	TI (therapeutic index) ([1]; 24 h)	effect on viability of B16 cells ([1]; 24 h and 48 h)	TI (therapeutic index) ([1]; 48 h)	IC50 ([1]; B16, 24 h) [µg/mL]	IC50 ([1]; B16, 24 h, read-out: IC50) [µM]	IC50 ([1]; B16, 48 h) [µg/mL]	IC50 ([1]; B16, 48 h, read-out: IC50) [µM]	LDH release (B16 cells; B16, 24 h) [%]	LDH release (B16 cells; B16, 48 h) [%]	B16 cell viability decreased to ([1]; B16) [%]
Cc1cc(C)n2ncnc2n1.Cc1cc(C)n2ncnc2n1.Cc1cc(C)n2ncnc2n1.O.[Cu+2].[O-][Cl+3]([O-])([O-])[O-].[O-][Cl+3]([O-])([O-])[O-].c1ccc(-c2ccccn2)nc1 [Complex (1), [Cu(bpy)(dmtp)2(OH2)](ClO4)2·dmtp]	fluorescence intensity decreased	alleviated the sensitivity of sod1Δ and sod2Δ to menadione	improved the growth of sod1Δ mutants	not affected	did not affect the membrane integrity	0.71	8.68	reduced the viability of B16 cells	12.82	5.76	6.5	3.90	4.42			
Cc1cc(C)n2ncnc2n1.Cc1cc(C)n2ncnc2n1.Cc1cc(C)n2ncnc2n1.O.[Cu+2].[O-][Cl+3]([O-])([O-])[O-].[O-][Cl+3]([O-])([O-])[O-].c1cnc2c(c1)ccc1cccnc12 [Complex (2), [Cu(phen)(dmtp)2(OH2)](ClO4)2·dmtp]	fluorescence intensity decreased	alleviated the sensitivity of sod1Δ and sod2Δ to menadione	improved the growth of sod1Δ mutants	not affected		0.69	1.98		1.08	6.88	7.6	4.15	4.58	60	100	5
